Test results as given in paper PMC7461116, “Synthesis, Anticonvulsant and Antinociceptive Activity of New Hybrid Compounds: Derivatives of 3-(3-Methylthiophen-2-yl)-pyrrolidine-2,5-dione” (International Journal of Molecular Sciences, 2020).
Where a name gives a salt, the structure may show the parent alone. Read-outs that look alike come from different tables or passages of the source.

What was measured:
[1] = tested on: maximal electroshock seizures; conditions: cited from earlier work
[2] = tested on: 6 Hz psychomotor seizures; conditions: mice ip, reference AEDs, cited from earlier work; for 6 Hz ED50: 32 mA
Hep G2 cells = assay: Hepatotoxicity, PrestoBlue viability assay; format: cell-based, human; conditions: 24 h; for Hepatotoxicity in Hep G2 cells, in words: 1 and 10 μM; for Inhibition of viability of Hep G2 cells: 100 and 50 μM
Experimental: (§1) Hepatotoxicity of tested compounds was assessed in PrestoBlue (Thermo Fisher Scientific, Waltham, MA, USA) Experiments on microplate reader (SpectraMax® iD3, Molecular Devices, San Jose, CA, USA) using human hepatocellular carcinoma cells (Hep G2) ATCC® […]. The cells were cultured in standard conditions (37 °C, 5% CO2), in Dulbecco’s Modified Eagle’s Medium-high glucose, (DMEM, Gibco, Thermo Fisher Scientific, Waltham, MA, USA) supplemented with 10% fetal bovine serum (Thermo Fisher Scientific, Waltham, MA, USA), with added 100 IU/mL penicillin (Sigma Aldrich, Steinheim, Germany) and 100 µg/mL streptomycin (Sigma Aldrich). PrestoBlue reagent is a resazurin-based solution that functions as a cell viability indicator. Metabolically active cells are capable of reducing the PrestoBlue reagent, with the colorimetric changes used as an indicator to quantify the viability of cells in culture. This change can be determined by measuring the fluorescence. After 24 h of incubation with the compounds PrestoBlue reagent was added to wells of a microplate. After 20 min of incubation at 37 °C, the fluorescence intensity (EX 530; EM 580 nm) was measured in a plate reader. Viability values were calculated as a percentage of live cells with respect to the control sample (DMSO). The negative control was medium without cells. Astemizole was used as a reference substance.

[3] = tested on: PTZ-induced clonic seizures; assay: Subcutaneous pentylenetetrazole (scPTZ) seizure test; format: in vivo; conditions: mice, 100 mg/kg
Experimental: Clonic convulsions were induced by the subcutaneous (sc) administration of PTZ at a dose of 100 mg/kg. After PTZ injection, the mice were placed separately and observed during the next 30 min for the occurrence of clonic seizures. Clonic seizures were defined as clonus of the whole body lasting more than 3 s, with an accompanying loss of righting reflex. The latency to first clonus, the number of seizure episodes, and mortality rate were noted and compared with vehicle-treated and drug-treated groups. The absence of clonic convulsions within the observed time period was interpreted as the compound’s ability to protect against PTZ-induced seizures.

[4] = tested on: 6 Hz psychomotor seizures; assay: 6 Hz (32 mA) psychomotor seizure test; format: in vivo, mice; conditions: for ED50 / responders at 100 mg/kg: Mus musculus; for ED50 / PI (TD50/ED50), 6 Hz: mice ip; for ED50: 95% confidence limit in brackets; for responders at 100 mg/kg / 6 Hz: tested animals protected: ip, 0.5 h
Text: Psychomotor seizures were induced via corneal stimulation (6 Hz, 32 mA, 0.2 ms rectangular pulse width, 3 s duration) using a constant-current device (ECT Unit 57800, Ugo Basile, Italy). A drop of 1% solution of lidocaine hydrochloride was applied to the mouse corneas before stimulation to provide local anesthesia and ensure optimal current conductivity. After the electrical stimulation, mice were gently released and observed for the presence or absence of seizure activity, being characterized by immobility associated with rearing, forelimb clonus, twitching of the vibrissae, stun, and Straub-tail. Lack of the above symptoms or their cessation within 10 s from the stimulation was considered as absence of seizure activity. The initial anticonvulsant screening of the tested compounds was performed at a fixed dose of 100 mg/kg (four mice per group). Then ED50 was calculated for active compounds as described above.

[5] = Rotarod test (acute neurotoxicity, NT); conditions: mouse, in vivo, mice ip
[6] = tested on: maximal electroshock seizures; assay: Maximal electroshock seizure (MES) test; format: in vivo, mice; conditions: for responders at 100 mg/kg / ED50: Mus musculus; for responders at 100 mg/kg / MES: tested animals protected: ip, 0.5 h; for ED50: mice ip, 95% confidence limit in brackets
Experimental: The MES test was performed as previously described. Stimuli (25 mA, 0.2 s, 50 Hz) were generated by a constant current stimulator (Rodent shocker, Type 221, Hugo Sachs Elektronik, Germany) and delivered with the use of auricular electrodes. During the stimulation, each mouse was restrained manually, and immediately after the stimulation gently released for observation. The endpoint was the tonic extension of the hind limbs. Mice not displaying hindlimb tonic extension were considered to be protected from seizure. The initial anticonvulsant screening of the tested compounds was performed at a fixed dose of 100 mg/kg (four mice per group). […] To evaluate the ED50, at least three groups of animals were injected with various doses of tested compounds. Each group consisted of six animals.

[7] = tested on: motor impairment on rotarod; assay: Rotarod test (acute neurotoxicity, NT); format: in vivo; conditions: ip, 100 mg/kg, 0.5 h
Experimental: In this test mice were trained to balance on an accelerating rotarod that rotated at 10 rotations per minute (Rotarod apparatus, May Commat RR0711, Turkey; rod diameter: 3 cm). During the training session, the animals were placed on a rotating rod for 3 min with an unlimited number of trials. Proper experiment was conducted 24 h after the training trial. On the test day, trained mice were intraperitoneally pretreated with the test compound at a dose of 100 mg/kg and just before the MES test were tested on the rotarod. Neurotoxicity was indicated by the inability of the animal to maintain equilibration on the rod for 1 min. […] Each group consisted of six animals.

TRPV1 receptor = molecular target: T1, TRPV1 receptor (Homo sapiens, UniProt Q8NER1); assay: TRPV1 (VR1) (h) antagonist effect, Cerep; format: biochemical; conditions: 100 µM
T1 construct: Cerep Laboratories (Poitiers, France)
Experimental: (§2) Binding and functional studies were performed commercially in Cerep Laboratories (Poitiers, France) using testing procedures described elsewhere (Na^+ channel-site 2 [27], L-type Ca^2+ channel, dihydropyridine site, TRPV1 (VR1) (h) (antagonist effect), GABA transporter (GAT)). All experiments were performed in duplicate.

[8] = tested on: latency time to pain reaction; assay: Hot plate test; format: in vivo; conditions: mice, ip, 30 mg/kg
Experimental: The hot plate test was carried out based on the Eddy and Leimbach (1953) method. In this test, the apparatus was equipped with an electrically heated surface with a temperature controller that maintains surface temperature to a set point. Herein, the temperature was set at 55 °C. The animals were treated ip either with the test compounds, or vehicle 30 min before placing the animal on a hot plate apparatus. Latency time to pain reaction, i.e., the time until the animal licked its back paws or jumped was recorded by means of the stopwatch.

[9] = tested on: Voltage-Sensitive Na+ Channel (site 2); assay: Radioligand binding, [3H]BTX, Cerep; conditions: 100 µM, rat cerebral cortex synaptoneurosomal preparations
Experimental: as §2

[10] = tested on: acetic acid-induced writhing behavior; assay: Acetic acid-induced writhing test; format: in vivo; conditions: mice, ip, 30 mg/kg
Experimental: Mice were injected with the test compound or vehicle by intraperitoneally route (ip), and 30 min later, 0.9 % acetic acid solution was injected ip and the animals were placed into the glass beakers. The writhing response (lengthwise stretching of the torso, concave arching of the back, and extension of the hind limbs) was recorded for 30 min. The analgesic effect of the tested substances was determined by a decrease in the number of writhes observed and the results were expressed as percent inhibition of writhing behavior (as index of analgesia), and was calculated using the following formula: %Inhibition=(NA−NB)/NA×100, where NA—number of writhes in vehicle group, NB—number of writhes in drug-treated group.

[11] = tested on: Voltage-Sensitive Ca2+ Channel L-type (dihydropyridine site); assay: Radioligand binding, [3H]nitrendipine, Cerep; conditions: 100 µM, rat cerebral cortex synaptoneurosomal preparations
Experimental: as §2

[12] = Hepatotoxicity, PrestoBlue viability assay; format: cell-based, human; conditions: human, Hep G2 cells, 1–100 μM, read-out: Hep G2 cell viability
Experimental: as §1

GABA Transporter (GAT) = assay: Radioligand binding, [3H]GABA, Cerep; conditions: 100 µM, rat cerebral cortex synaptoneurosomal preparations
Experimental: as §2

[13] = mice, 100 mg/kg, 32 mA, read-out: 6 Hz: number of mice protected/number of mice tested (converted)
[14] = mice, 100 mg/kg, read-out: MES: number of mice protected/number of mice tested (converted)
[15] = read-out: 6 Hz: number of mice protected/number of mice tested
[16] = read-out: MES: number of mice protected/number of mice tested

T1 sequence (Q8NER1 whole entry): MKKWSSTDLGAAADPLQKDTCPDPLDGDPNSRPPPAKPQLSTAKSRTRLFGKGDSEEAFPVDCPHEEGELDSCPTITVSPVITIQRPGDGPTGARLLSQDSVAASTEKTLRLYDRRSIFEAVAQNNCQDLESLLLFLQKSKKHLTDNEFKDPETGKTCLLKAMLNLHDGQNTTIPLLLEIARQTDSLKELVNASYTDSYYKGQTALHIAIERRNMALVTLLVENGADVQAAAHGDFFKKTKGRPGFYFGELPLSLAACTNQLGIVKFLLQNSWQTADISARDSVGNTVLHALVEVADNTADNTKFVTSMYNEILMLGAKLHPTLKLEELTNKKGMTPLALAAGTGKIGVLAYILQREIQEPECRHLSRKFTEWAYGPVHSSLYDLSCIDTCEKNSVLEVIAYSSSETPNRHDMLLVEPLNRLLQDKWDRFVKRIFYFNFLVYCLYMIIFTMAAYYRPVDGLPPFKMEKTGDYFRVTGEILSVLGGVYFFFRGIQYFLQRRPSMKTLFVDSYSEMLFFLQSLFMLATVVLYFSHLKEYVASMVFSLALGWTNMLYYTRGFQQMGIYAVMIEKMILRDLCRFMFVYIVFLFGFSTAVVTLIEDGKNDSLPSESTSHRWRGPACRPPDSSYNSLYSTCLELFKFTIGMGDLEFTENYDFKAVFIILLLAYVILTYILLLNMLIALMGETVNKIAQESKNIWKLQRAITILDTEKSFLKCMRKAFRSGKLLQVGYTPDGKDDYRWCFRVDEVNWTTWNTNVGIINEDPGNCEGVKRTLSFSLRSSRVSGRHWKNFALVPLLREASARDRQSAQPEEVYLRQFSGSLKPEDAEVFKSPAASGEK

Structure (SMILES): CCC1(C)CC(=O)NC1=O (stereo not shown) [ETX, ethosuximide]
- MES: protection in words [1]: did not show protection
- MES ED50 ([1]; mice ip, reference AEDs): > 500 mg/kg
- 6 Hz ED50 [2]: 221.7 (183.0–268.5) mg/kg
- PI (TD50/ED50), 6 Hz [2]: 3.2 (6 Hz)

Structure (SMILES): COc1ccc(CCN2CCC(Nc3nc4ccccc4n3Cc3ccc(F)cc3)CC2)cc1 [Astemizole, reference compound]
- Hepatotoxicity in HepG2 cells, in words (Hep G2 cells; 1–100 μM): inhibits the viability of HepG2 cells in a dose-dependent manner

Structure (SMILES): Cc1ccsc1C1CC(=O)N(CC(=O)N2CCN(c3cccc(Cl)c3)CC2)C1=O (racemic) [Compound 14, (R,S)-1-(2-(4-(3-Chlorophenyl)piperazin-1-yl)-2-oxoethyl)-3-(3-methylthiophen-2-yl)pyrrolidine-2,5-dione]
- scPTZ: effect in words [3]: no significant effect
- ED50 ([4]; 32 mA): 153 mg/kg
- responders at 100 mg/kg [4, 13]: 50%
- TD50 at 0.5 h [5]: > 300 mg/kg
- responders at 100 mg/kg [6, 14]: 0%
- NT: number of mice with motor impairment/number of mice tested [7]: 0/4

Structure (SMILES): Cc1ccsc1C1CC(=O)N(CCCN2CCN(c3ccc(Cl)c(Cl)c3)CC2)C1=O (racemic) [Compound 9, (R,S)-1-(3-(4-(3,4-Dichlorophenyl)piperazin-1-yl)propyl)-3-(3-methylthiophen-2-yl)pyrrolidine-2,5-dione hydrochloride]
- Hepatotoxicity in Hep G2 cells, in words (Hep G2 cells): no hepatotoxicity
- Inhibition of viability of Hep G2 cells (Hep G2 cells): 13–28%
- ED50 ([4]; 32 mA): > 130 mg/kg
- responders at 100 mg/kg [4, 13]: 50%
- TRPV1 antagonist effect (TRPV1 receptor): 109.5%
- Hot plate: prolongation of latency time to pain reaction [8]: 43%
- TD50 at 0.5 h [5]: > 300 mg/kg
- % Inhibition of Control Specific Binding, Voltage-Sensitive Na+ Channel (site 2) [9]: 78.8%
- Reduction of number of writhes (inhibition of writhing behavior) [10]: 61.44%
- % Inhibition of Control Specific Binding, Voltage-Sensitive Ca2+ Channel L-typ [11]: −9.5%
- ED50 [6]: > 130 mg/kg
- responders at 100 mg/kg [6, 14]: 50%
- MES: tested animals protected ([6]; mice, 100 mg/kg): 50%
- NT: number of mice with motor impairment/number of mice tested [7]: 0/4

Structure (SMILES): Cc1ccsc1C1CC(=O)N(CCCN2CCOCC2)C1=O (racemic) [Compound 4, (R,S)-3-(3-Methylthiophen-2-yl)-1-(3-morpholinopropyl)pyrrolidine-2,5-dione hydrochloride]
- viability at 24 h [12]: > 94%
- scPTZ: effect in words [3]: no significant effect
- responders at 100 mg/kg [4, 15]: 75%
- ED50 ([4]; 32 mA): 75.6 mg/kg
- PI (TD50/ED50), 6 Hz [4]: < 2.65
- 6 Hz: tested animals protected ([4]; mice, 100 mg/kg, 32 mA): at least 75%
- Hot plate: prolongation of latency time to pain reaction [8]: inactive
- TD50 at 0.5 h [5]: < 200 mg/kg
- % Inhibition of Control Specific Binding, Voltage-Sensitive Na+ Channel (site 2) [9]: 42.1%
- Reduction of number of writhes (inhibition of writhing behavior) [10]: 29.8%
- % Inhibition of Control Specific Binding, Voltage-Sensitive Ca2+ Channel L-typ [11]: 39.7%
- responders at 100 mg/kg [6, 16]: 75%
- ED50 [6]: 62.1 mg/kg
- MES: tested animals protected ([6]; mice, 100 mg/kg): 75%
- % Inhibition of Control Specific Binding, GABA Transporter (GAT) (GABA Transporter (GAT)): −3.2%
- NT: number of mice with motor impairment/number of mice tested [7]: 0/4

Structure (SMILES): CCCC(CCC)C(=O)O [VPA, valproic acid]
- PI (TD50/ED50), MES ([1]; mice ip, reference AEDs): 1.7
- 6 Hz ED50 [2]: 130.6 (117.6–145.2) mg/kg
- PI (TD50/ED50), 6 Hz [2]: 3.3

Structure (SMILES): Cc1ccsc1C1CC(=O)N(CCCN2CCN(c3cccc(C(F)(F)F)c3)CC2)C1=O (racemic) [Compound 6, (R,S)-3-(3-Methylthiophen-2-yl)-1-(3-(4-(3-(trifluoromethyl)phenyl)piperazin-1-yl)propyl)pyrrolidine-2,5-dione hydrochloride]
- Hepatotoxicity in Hep G2 cells, in words (Hep G2 cells): no hepatotoxicity
- Inhibition of viability of Hep G2 cells (Hep G2 cells): 13–28%
- responders at 100 mg/kg [4, 15]: 75%
- ED50 ([4]; 32 mA): 78.3 mg/kg
- PI (TD50/ED50), 6 Hz [4]: < 1.28
- 6 Hz: tested animals protected ([4]; mice, 100 mg/kg, 32 mA): at least 75%
- TRPV1 antagonist effect (TRPV1 receptor): 74.8%
- Hot plate: prolongation of latency time to pain reaction [8]: 49%
- TD50 at 0.5 h [5]: < 100 mg/kg
- % Inhibition of Control Specific Binding, Voltage-Sensitive Na+ Channel (site 2) [9]: 96.7%
- Reduction of number of writhes (inhibition of writhing behavior) [10]: 27%
- % Inhibition of Control Specific Binding, Voltage-Sensitive Ca2+ Channel L-typ [11]: 69.9%
- responders at 100 mg/kg [6, 16]: 25%
- NT: number of mice with motor impairment/number of mice tested [7]: 4/4
